Measurements reported in patent US20080145372A1, “Bioreductively-Activated Prodrugs” (ANGIOGENE, PHARMACEUTICALS LIMITED, priority 2004, published 2008).

Test: Pulse radiolysis: fragmentation of radical anions
Conditions: prodrug 40 μM, N2O-saturated 50% aqueous 2-propanol, pH 7.4-9.0
Procedure: The rate of fragmentation of intermediate radical anions produced by one-electron reduction is an important determinant of bioreductive prodrug action and can be measured by pulse radiolysis. The magnitude of the rate constant of radical fragmentation indicates the ability of the prodrugs to deliver the drug under hypoxia. The radicals were generated by reduction of the parent prodrugs (40 μM) by the 2-propanol radical generated radiolytically in an N2O-saturated 50% aqueous 2-propanol buffered to pH 7.4-9.0 with potassium phosphate (4 mM). Experiments were performed with a 6 Me V linear accelerator to generate an electron pulse of around 500 ns.

Going from `O=C(Nc1ccn([C@@H]2O[C@H](CO)[C@@H](O)C2(F)F)c(=O)n1)OCc1ccc([N+](=O)[O-])s1` [Example 6, N^4-(5-nitrothien-2-yl)methoxycarbonyl-2′,2′-difluoro-2′-deoxycytidine] to `CC(OC(=O)Nc1ccn([C@@H]2O[C@H](CO)[C@@H](O)C2(F)F)c(=O)n1)c1ccc([N+](=O)[O-])s1` (stereo partly shown) [Example 3, N^4-(1-(5-nitrothien-2-yl)ethyl)oxycarbonyl-2′,2′-difluoro-2′-deoxycytidine], the “First-order rate constant k for the decay of radical anions produced by pulse radiolysis” value (from here on “First-order rate constant k”) rises from 20 s⁻¹ to 102 s⁻¹ (5.1-fold).

Compared with `CC(=O)O[C@@H]1[C@H](OC(C)=O)[C@@H](C)O[C@H]1n1cc(F)c(NC(=O)OCc2ccc([N+](=O)O)s2)nc1=O` [Example 9, 5′-Deoxy-2′,3′-di-O-acetyl-5-fluoro-N^4-((5-nitrothien-2-yl)methoxycarbonyl)cytidine], `CC(=O)OC[C@H]1O[C@@H](n2ccc(NC(=O)OC(C)c3ccc([N+](=O)[O-])s3)nc2=O)[C@@H](OC(C)=O)[C@@H]1OC(C)=O` (stereo partly drawn) [Example 4, Tri-O-acetyl-N^4-(1-(5-nitrothien-2-yl)ethyl)oxycarbonyl-1-β-D-arabinofuranosylcytosine] is 11-fold higher in “First-order rate constant k” value: 22 s⁻¹ for the first, 245 s⁻¹ for the second.

Compared with `O=C(Nc1ccn([C@@H]2O[C@H](CO)[C@@H](O)[C@@H]2O)c(=O)n1)OCc1ccc([N+](=O)[O-])o1` [Example 12, N^4-(5-nitrofuran-2-yl)methoxycarbonyl-1-β-D-arabinofuranosylcytosine], `O=C(Nc1ccn([C@@H]2O[C@H](CO)[C@@H](O)[C@@H]2O)c(=O)n1)OCc1ccc([N+](=O)[O-])s1` [Example 2, N^4-(5-nitrothien-2-yl)methoxycarbonyl-1-β-D-arabinofuranosylcytosine] is 2.2-fold higher in “First-order rate constant k” value: 5.5 s⁻¹ for the first, 12 s⁻¹ for the second.

Going from `CC(OC(=O)Nc1ccn([C@@H]2O[C@H](CO)[C@@H](O)[C@@H]2O)c(=O)n1)c1ccc([N+](=O)[O-])cc1` (stereo partly drawn) [Example 11, N^4-(1-(4-nitrophenyl)ethoxycarbonyl)-1-β-D-arabinofuranosylcytosine] to `CC(OC(=O)Nc1ccn([C@@H]2O[C@H](CO)[C@@H](O)[C@@H]2O)c(=O)n1)c1ccc([N+](=O)[O-])s1` (stereo partly drawn) [Example 1, N^4-(1-(5-nitrothien-2-yl)ethyl)oxycarbonyl-1-β-D-arabinofuranosylcytosine], the “First-order rate constant k” value rises from 0.4 s⁻¹ to 49 s⁻¹ (120-fold).

Compared with `Cn1c(COC(=O)Nc2ccn([C@@H]3O[C@H](CO)[C@@H](O)C3(F)F)c(=O)n2)cnc1[N+](=O)[O-]` [Example 5, N^4-(2-nitro-1-methylimidazol-5-yl)methoxycarbonyl-2′,2′-difluoro-2′-deoxycytidine], `O=C(Nc1nc(F)nc2c1ncn2[C@@H]1O[C@H](CO)[C@@H](O)[C@@H]1O)OCc1ccc([N+](=O)[O-])s1` [Example 10, 2-fluoro-N^6-(5-nitrothien-2-yl)methoxycarbonyl-9-O-D-arabinofuranosyladenine] is 8-fold higher in “First-order rate constant k” value: 18 s⁻¹ for the first, 144 s⁻¹ for the second.

In the case of `O=C(Nc1ncnc2c1ncn2[C@@H]1O[C@H](CO)[C@@H](O)[C@@H]1O)OCc1ccc([N+](=O)[O-])s1` [Example 8, N^6-(5-nitrothien-2-yl)methoxycarbonyl-9-β-D-arabinofuranosyladenine], the “First-order rate constant k” value is reported as 148 s⁻¹.

In the case of `O=C(Nc1ccn([C@@H]2O[C@H](CO)[C@@H](O)[C@@H]2O)c(=O)n1)OCc1ccc([N+](=O)[O-])cc1` [N^4-(4-nitrophenyl)methoxycarbonyl-1-β-D-arabinofuranosylcytosine, reference compound], the “First-order rate constant k” value is reported as “too small to measure”.

Test: not given
Conditions: not given

`O=C(Nc1ccn([C@@H]2O[C@H](CO)[C@@H](O)C2(F)F)c(=O)n1)OCc1ccc([N+](=O)[O-])s1` [Example 6, N^4-(5-nitrothien-2-yl)methoxycarbonyl-2′,2′-difluoro-2′-deoxycytidine] showed a melting point of 144 to 148 °C.
